For test [1], the system named is human monocytic leukemia U937 cells. The test can be described thus: necroptosis assay in U937 cells. As to conditions: Homo sapiens, U-937, U937 cells; viability by cellular ATP (Cell Titer-Glo); read-out: pIC50, inhibited necrosis in U937 cells (converted). The class given is cell-based. In short, it runs like this: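 Necroptosis was induced in human U937 or mouse L929 cells, and viability was quantified as cellular ATP with Cell Titer-Glo. Data are means±standard deviation.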
A general note: In ATP-based viability assays light output follows the ATP content of the culture.

The next test deals with T1, RIP1 kinase (Homo sapiens, UniProt Q13546).
T1 sequence (Q13546 1-375 limits assumed): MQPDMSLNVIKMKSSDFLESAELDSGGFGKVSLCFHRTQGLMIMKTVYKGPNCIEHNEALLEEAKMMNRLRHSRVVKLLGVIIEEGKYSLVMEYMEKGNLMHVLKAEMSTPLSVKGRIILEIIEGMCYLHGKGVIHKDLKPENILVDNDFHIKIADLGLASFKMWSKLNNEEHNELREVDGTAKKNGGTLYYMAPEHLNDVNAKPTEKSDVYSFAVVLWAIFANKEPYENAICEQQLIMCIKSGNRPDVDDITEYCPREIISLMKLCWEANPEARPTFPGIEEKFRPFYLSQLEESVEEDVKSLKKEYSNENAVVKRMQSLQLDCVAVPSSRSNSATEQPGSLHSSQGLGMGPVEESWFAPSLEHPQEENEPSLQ
The test can be described thus: fluorescent polarization based binding assay. As to conditions: mean of a minimum of 2 experiments. The source says:
A fluorescent polarization based binding assay was used to assess the activity of the compounds of this invention, the details of which are disclosed in International Patent Appln. No. PCT/IB2014/059004, now, International Patent Appln. Pub.

The structures appear in SMILES notation. “And” between values parts separate entries of the source, which are not always exact repeats. Identical values can stand only once.

On to `N#Cc1cnc(N2CCC(C(=O)N3N=CC[C@H]3c3cc(F)cc(F)c3)CC2)nc1` [Example 92, (S)-2-(4-(5-(3,5-difluorophenyl)-4,5-dihydro-1H-pyrazole-1-carbonyl)piperidin-1-yl)pyrimidine-5-carbonitrile], for which the IC50 was 1 to 100 nM in test [1]; 1 to 31.6 nM and 1 to 10 nM at RIP1 kinase.

On to `Nc1ccnc(N2CCC(C(=O)N3N=CC[C@H]3c3cc(F)cc(F)c3)CC2)n1` [Example 93, (S)-(1-(4-aminopyrimidin-2-yl)piperidin-4-yl)(5-(3,5-difluorophenyl)-4,5-dihydro-1H-pyrazol-1-yl)methanone], for which the IC50 in test [1] is 1 to 100 nM; at RIP1 kinase it was 1 to 31.6 nM.

`N#Cc1coc(N2CCC(C(=O)N3N=CC[C@H]3c3ccccc3)CC2)n1` [Example 137, (S)-2-(4-(5-phenyl-4,5-dihydro-2H-pyrazole-1-carbonyl)piperidin-1-yl)oxazole-4-carbonitrile]: the IC50 in test [1] is 1 to 100 nM; on RIP1 kinase, 1 to 31.6 nM and 1 to 10 nM.

Regarding `COc1cnc(N2CCC(C(=O)N3N=CC[C@H]3c3ccccc3)CC2)nc1` [Example 13, (S)-(1-(5-methoxypyrimidin-2-yl)piperidin-4-yl)(5-phenyl-4,5-dihydro-1H-pyrazol-1-yl)methanone], the IC50 in test [1] is 1 to 100 nM; on RIP1 kinase, 1 to 31.6 nM and 1 to 10 nM.

`N#Cc1nccnc1N1CCC(C(=O)N2N=CC[C@H]2c2ccccc2)CC1` [Example 44, (S)-3-(4-(5-phenyl-4,5-dihydro-1H-pyrazole-1-carbonyl)piperidin-1-yl)pyrazine-2-carbonitrile]: the IC50 was 1 to 100 nM in test [1]; 1 to 31.6 nM and 1 to 10 nM at RIP1 kinase.

With `CCN(CC)C(=O)c1ccnc(N2CCC(C(=O)N3N=CC[C@H]3c3ccccc3)CC2)n1` [Example 142, (S)-N,N-diethyl-2-(4-(5-phenyl-4,5-dihydro-1H-pyrazole-1-carbonyl)piperidin-1-yl)pyrimidine-4-carboxamide], the IC50 in test [1] is 1 to 100 nM; on RIP1 kinase it was 1 to 31.6 nM and 1 to 10 nM.

`Nc1nc(N2CCC(C(=O)N3N=CC[C@H]3c3cncc(F)c3)CC2)ncc1F` [Example 112, (S)-(1-(4-amino-5-fluoropyrimidin-2-yl)piperidin-4-yl)(5-(5-fluoropyridin-3-yl)-4,5-dihydro-1H-pyrazol-1-yl)methanone]: the results for the IC50 (in test [1]; at RIP1 kinase) were 1 to 100 nM and 1 to 31.6 nM, respectively.

For `CNc1nccc(N2CCC(C(=O)N3N=CC[C@H]3c3cc(F)cc(F)c3)CC2)n1` [Example 100, (S)-(5-(3,5-difluorophenyl)-4,5-dihydro-1H-pyrazol-1-yl)(1-(2-(methylamino)pyrimidin-4-yl)piperidin-4-yl)methanone], the results for the IC50 (in test [1]; on RIP1 kinase) were 1 to 100 nM and 1 to 31.6 nM, respectively.

As to `N#Cc1cccc([C@@H]2CC=NN2C(=O)C2CCN(c3ccnc(C#N)n3)CC2)c1` [Example 74, (S)-4-(4-(5-(3-cyanophenyl)-4,5-dihydro-1H-pyrazole-1-carbonyl)piperidin-1-yl)pyrimidine-2-carbonitrile], the IC50 was 1 to 100 nM in test [1] and 1 to 31.6 nM on RIP1 kinase.

For the compound `Nc1nccc(N2CCC(C(=O)N3N=CC[C@H]3c3ccccc3)CC2)n1` [Example 11, (S)-(1-(2-aminopyrimidin-4-yl)piperidin-4-yl)(5-phenyl-4,5-dihydro-1H-pyrazol-1-yl)methanone], the IC50 was 1 to 100 nM in test [1] and 1 to 31.6 nM at RIP1 kinase.

Consider `NC(=O)c1coc(N2CCC(C(=O)N3N=CC[C@H]3c3cc(F)cc(F)c3)CC2)n1` [Example 134, (S)-2-(4-(5-(3,5-difluorophenyl)-4,5-dihydro-1H-pyrazole-1-carbonyl)piperidin-1-yl)oxazole-4-carboxamide], for which the IC50 in test [1] was 1 to 100 nM; on RIP1 kinase, 1 to 31.6 nM.

Consider `CNc1nccc(N2CCC(C(=O)N3N=CC[C@H]3c3ccccc3)CC2)n1` [Example 15, (S)-(1-(2-(methylamino)pyrimidin-4-yl)piperidin-4-yl)(5-phenyl-4,5-dihydro-1H-pyrazol-1-yl)methanone], for which the IC50 in test [1] was 1 to 100 nM; at RIP1 kinase, 1 to 31.6 nM and 1 to 10 nM.

As for `O=C(C1CCN(c2ncc3[nH]cnc3n2)CC1)N1N=CC[C@H]1c1cc(F)cc(F)c1` [Example 139, (S)-(1-(7H-purin-2-yl)piperidin-4-yl)(5-(3,5-difluorophenyl)-4,5-dihydro-1H-pyrazol-1-yl)methanone], the IC50 in test [1] was 1 to 100 nM; on RIP1 kinase, 1 to 31.6 nM.

With `N#Cc1cnc(N2CCC(C(=O)N3N=CC[C@H]3c3cc(F)ccc3F)CC2)cn1` [Example 103, (S)-5-(4-(5-(2,5-difluorophenyl)-4,5-dihydro-1H-pyrazole-1-carbonyl)piperidin-1-yl)pyrazine-2-carbonitrile], the IC50 in test [1] was 1 to 100 nM; at RIP1 kinase, 1 to 31.6 nM and 1 to 10 nM.

For the compound `CCOc1ccnc(N2CCC(C(=O)N3N=CC[C@H]3c3ccccc3)CC2)n1` [Example 58, (S)-(1-(4-ethoxypyrimidin-2-yl)piperidin-4-yl)(5-phenyl-4,5-dihydro-1H-pyrazol-1-yl)methanone], the IC50 in test [1] was 1 to 100 nM; at RIP1 kinase, 1 to 31.6 nM and 1 to 10 nM.

As to `CC(=O)N1CCC(NC(=O)c2ccnc(N3CCC(C(=O)N4N=CC[C@H]4c4ccccc4)CC3)n2)CC1` [Example 144, (S)-N-(1-acetylpiperidin-4-yl)-2-(4-(5-phenyl-4,5-dihydro-1H-pyrazole-1-carbonyl)piperidin-1-yl)pyrimidine-4-carboxamide], the results for the IC50 (in test [1]; on RIP1 kinase) were 1 to 100 nM and 1 to 31.6 nM, respectively.

Turning to `NC(=O)c1nc(N2CCC(C(=O)N3N=CC[C@H]3c3cncc(F)c3)CC2)ncc1Cl` [Example 124, (S)-5-chloro-2-(4-(5-(5-fluoropyridin-3-yl)-4,5-dihydro-1H-pyrazole-1-carbonyl)piperidin-1-yl)pyrimidine-4-carboxamide], the IC50 is 1 to 100 nM in test [1] and 1 to 31.6 nM on RIP1 kinase.

As for `N#Cc1cncnc1N1CCC(C(=O)N2N=CC[C@H]2c2cc(F)cc(F)c2)CC1` [Example 88, (S)-4-(4-(5-(3,5-difluorophenyl)-4,5-dihydro-1H-pyrazole-1-carbonyl)piperidin-1-yl)pyrimidine-5-carbonitrile], the IC50 in test [1] is 1 to 100 nM; on RIP1 kinase it was 1 to 31.6 nM.

Consider `O=C1Cc2cnc(N3CCC(C(=O)N4N=CC[C@H]4c4ccccc4)CC3)nc2N1` [Example 24, (S)-2-(4-(5-phenyl-4,5-dihydro-1H-pyrazole-1-carbonyl)piperidin-1-yl)-5H-pyrrolo[2,3-d]pyrimidin-6(7H)-one], for which the values for the IC50 (in test [1]; at RIP1 kinase) were 1 to 100 nM and 1 to 31.6 nM, respectively.

For the compound `O=C(C1CCN(c2ncc(-c3ccccc3)o2)CC1)N1N=CC[C@H]1c1ccccc1` [Example 67, (S)-(5-phenyl-4,5-dihydro-1H-pyrazol-1-yl)(1-(5-phenyloxazol-2-yl)piperidin-4-yl)methanone], the IC50 is 1 to 100 nM in test [1] and 1 to 31.6 nM at RIP1 kinase.

The values are drawn from US20190345138A1, “HETEROCYCLIC AMIDES AS KINASE INHIBITORS” (GlaxoSmithKline Intellectual Property Development Limited, priority 2016, published 2019).
